Laboratory results reported in the supplement of paper PMC10307832.

Assays:
Assay in all cases: relative viability (nuclei count vs DMSO), 5 days (fraction); higher = more cells survive
[1] = compound: CC1=CC(=CC=C1)NC2=NC(=CS2)C3=CC=NC=C3 + Cc1nc(NC(=O)N2CCC[C@H]2C(N)=O)sc1-c1ccnc(C(C)(C)C(F)(F)F)c1 [Alpelisib] (partner 2 µM)
Method in brief: (§1)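 After 5 days of treatment, lung cancer cells in 1536-well plates were fixed and stained in a single step (final 0.05% Triton X-100, 1% formaldehyde, 1 ug/ml Hoechst) and their nuclei counted on 4× images. Treatment had been applied by pin tool the day after seeding as one drug alone or as a fixed anchor-drug dose with five library-drug doses (not always all listed) in √10 steps. Relative viability is the nuclei count of treated wells divided by that of vehicle wells, and values are medians of duplicate plates.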

Masitinib + Linsitinib = compound: Cc1ccc(NC(=O)c2ccc(CN3CCN(C)CC3)cc2)cc1Nc1nc(-c2cccnc2)cs1 [Masitinib] + C[C@]1(O)C[C@@H](c2nc(-c3ccc4ccc(-c5ccccc5)nc4c3)c3c(N)nccn32)C1 [Linsitinib] (partner 1 µM)
Method in brief: as §1

[2] = compound: CC1=CC(=CC=C1)NC2=NC(=CS2)C3=CC=NC=C3 + O=C(c1cc(Cc2n[nH]c(=O)c3ccccc23)ccc1F)N1CCN(C(=O)C2CC2)CC1 [Olaparib] (partner 8 µM)
Method in brief: as §1

Masitinib + Bortezomib = compound: Cc1ccc(NC(=O)c2ccc(CN3CCN(C)CC3)cc2)cc1Nc1nc(-c2cccnc2)cs1 [Masitinib] + CC(C)C[C@H](NC(=O)[C@H](Cc1ccccc1)NC(=O)c1cnccn1)B(O)O [Bortezomib] (partner 0.002 µM)
Method in brief: as §1

LK-2
relative viability ([1]; first compound 0.08 µM): 0.898
relative viability ([1]; first compound 0.253 µM): 1.09
relative viability ([1]; first compound 0.8 µM): 1.33
relative viability ([1]; first compound 8 µM): 1.19
relative viability (Masitinib + Linsitinib; first compound 0.01 µM): 0.511
relative viability (Masitinib + Linsitinib; first compound 0.03162 µM): 0.573
relative viability (Masitinib + Linsitinib; first compound 0.1 µM): 0.618
relative viability (Masitinib + Linsitinib; first compound 0.3162 µM): 0.649
relative viability (Masitinib + Linsitinib; first compound 1 µM): 0.812
relative viability ([2]; first compound 0.08 µM): 0.665
relative viability ([2]; first compound 0.253 µM): 0.762
relative viability ([2]; first compound 0.8 µM): 0.903
relative viability ([2]; first compound 2.53 µM): 0.824
relative viability ([2]; first compound 8 µM): 1.09

NCI-H1563
relative viability (Masitinib + Bortezomib; first compound 0.01 µM): 0.778
relative viability (Masitinib + Bortezomib; first compound 0.03162 µM): 0.789
relative viability (Masitinib + Bortezomib; first compound 0.1 µM): 0.905
relative viability (Masitinib + Bortezomib; first compound 0.3162 µM): 0.81
relative viability (Masitinib + Bortezomib; first compound 1 µM): 0.713
relative viability ([1]; first compound 0.08 µM): 0.881
relative viability ([1]; first compound 0.253 µM): 0.94
relative viability ([1]; first compound 0.8 µM): 0.968
relative viability ([1]; first compound 2.53 µM): 0.98
relative viability ([1]; first compound 8 µM): 0.828
relative viability (Masitinib + Linsitinib; first compound 0.01 µM): 1.17
relative viability (Masitinib + Linsitinib; first compound 0.03162 µM): 1.09
relative viability (Masitinib + Linsitinib; first compound 0.1 µM): 1.19
relative viability (Masitinib + Linsitinib; first compound 0.3162 µM): 1.26
relative viability (Masitinib + Linsitinib; first compound 1 µM): 1.17

SW 900
relative viability ([2]; first compound 0.08 µM): 0.751
relative viability ([2]; first compound 0.253 µM): 0.667
relative viability ([2]; first compound 0.8 µM): 0.693
relative viability ([2]; first compound 2.53 µM): 0.433
relative viability ([2]; first compound 8 µM): 0.543

NCI-H1648
relative viability ([2]; first compound 0.08 µM): 0.545
relative viability ([2]; first compound 0.253 µM): 0.412
relative viability ([2]; first compound 0.8 µM): 0.656
relative viability ([2]; first compound 2.53 µM): 0.477
relative viability ([2]; first compound 8 µM): 0.392

A549
relative viability ([1]; first compound 0.08 µM): 0.778
relative viability ([1]; first compound 0.253 µM): 0.693
relative viability ([1]; first compound 0.8 µM): 0.913
relative viability ([1]; first compound 2.53 µM): 0.758
relative viability ([1]; first compound 8 µM): 0.673
relative viability (Masitinib + Linsitinib; first compound 0.01 µM): 0.576
relative viability (Masitinib + Linsitinib; first compound 0.03162 µM): 0.602
relative viability (Masitinib + Linsitinib; first compound 0.1 µM): 0.667
relative viability (Masitinib + Linsitinib; first compound 0.3162 µM): 0.681
relative viability (Masitinib + Linsitinib; first compound 1 µM): 0.545
relative viability ([2]; first compound 0.08 µM): 0.264
relative viability ([2]; first compound 0.253 µM): 0.37
relative viability ([2]; first compound 0.8 µM): 0.353
relative viability ([2]; first compound 2.53 µM): 0.261
relative viability ([2]; first compound 8 µM): 0.449

ChaGo-K-1
relative viability (Masitinib + Bortezomib; first compound 0.01 µM): 1.04
relative viability (Masitinib + Bortezomib; first compound 0.03162 µM): 1.05
relative viability (Masitinib + Bortezomib; first compound 0.1 µM): 1.35
relative viability (Masitinib + Bortezomib; first compound 0.3162 µM): 1.12
relative viability (Masitinib + Bortezomib; first compound 1 µM): 0.962
relative viability ([2]; first compound 0.08 µM): 0.407
relative viability ([2]; first compound 0.253 µM): 0.389
relative viability ([2]; first compound 0.8 µM): 0.424
relative viability ([2]; first compound 2.53 µM): 0.418
relative viability ([2]; first compound 8 µM): 0.351

SK-MES-1
relative viability ([1]; first compound 0.08 µM): 0.626
relative viability ([1]; first compound 0.253 µM): 0.862
relative viability ([1]; first compound 0.8 µM): 0.893
relative viability ([1]; first compound 2.53 µM): 0.853
relative viability ([1]; first compound 8 µM): 0.848
relative viability (Masitinib + Linsitinib; first compound 0.01 µM): 1.11
relative viability (Masitinib + Linsitinib; first compound 0.03162 µM): 1.18
relative viability (Masitinib + Linsitinib; first compound 0.1 µM): 1.16
relative viability (Masitinib + Linsitinib; first compound 0.3162 µM): 1.03
relative viability (Masitinib + Linsitinib; first compound 1 µM): 0.987
relative viability ([2]; first compound 0.08 µM): 0.423
relative viability ([2]; first compound 0.253 µM): 0.437
relative viability ([2]; first compound 0.8 µM): 0.466
relative viability ([2]; first compound 2.53 µM): 0.457
relative viability ([2]; first compound 8 µM): 0.401

NCI-H2170
relative viability ([1]; first compound 0.08 µM): 0.706
relative viability ([1]; first compound 0.253 µM): 0.691
relative viability ([1]; first compound 0.8 µM): 0.639
relative viability ([1]; first compound 2.53 µM): 0.707
relative viability ([1]; first compound 8 µM): 0.555
relative viability ([2]; first compound 0.08 µM): 0.589
relative viability ([2]; first compound 0.253 µM): 0.631
relative viability ([2]; first compound 0.8 µM): 0.473
relative viability ([2]; first compound 2.53 µM): 0.531
relative viability ([2]; first compound 8 µM): 0.425

NCI-H2342
relative viability ([2]; first compound 0.08 µM): 0.438
relative viability ([2]; first compound 0.253 µM): 0.468
relative viability ([2]; first compound 0.8 µM): 0.398
relative viability ([2]; first compound 2.53 µM): 0.476
relative viability ([2]; first compound 8 µM): 0.395

NCI-H522
relative viability ([2]; first compound 0.08 µM): 0.708
relative viability ([2]; first compound 0.253 µM): 0.579
relative viability ([2]; first compound 0.8 µM): 0.746
relative viability ([2]; first compound 2.53 µM): 0.544
relative viability ([2]; first compound 8 µM): 0.704

NCI-H1793
relative viability ([1]; first compound 0.253 µM): 0.625
relative viability ([1]; first compound 0.8 µM): 0.704
relative viability ([1]; first compound 2.53 µM): 0.69
relative viability ([1]; first compound 8 µM): 0.79
relative viability (Masitinib + Linsitinib; first compound 0.01 µM): 0.875
relative viability (Masitinib + Linsitinib; first compound 0.03162 µM): 0.839
relative viability (Masitinib + Linsitinib; first compound 0.1 µM): 0.812
relative viability (Masitinib + Linsitinib; first compound 0.3162 µM): 0.998
relative viability (Masitinib + Linsitinib; first compound 1 µM): 0.647
relative viability ([2]; first compound 0.08 µM): 0.889
relative viability ([2]; first compound 0.253 µM): 0.647
relative viability ([2]; first compound 0.8 µM): 0.799
relative viability ([2]; first compound 2.53 µM): 0.68
relative viability ([2]; first compound 8 µM): 0.81

NCI-H358
relative viability ([1]; first compound 0.08 µM): 0.662
relative viability ([1]; first compound 0.253 µM): 0.772
relative viability ([1]; first compound 0.8 µM): 0.645
relative viability ([1]; first compound 2.53 µM): 0.929
relative viability ([1]; first compound 8 µM): 0.791
relative viability (Masitinib + Linsitinib; first compound 0.01 µM): 0.86
relative viability (Masitinib + Linsitinib; first compound 0.03162 µM): 0.877
relative viability (Masitinib + Linsitinib; first compound 0.1 µM): 0.715
relative viability (Masitinib + Linsitinib; first compound 0.3162 µM): 0.809
relative viability (Masitinib + Linsitinib; first compound 1 µM): 0.623
relative viability ([2]; first compound 0.08 µM): 0.547
relative viability ([2]; first compound 0.253 µM): 0.519
relative viability ([2]; first compound 0.8 µM): 0.521
relative viability ([2]; first compound 2.53 µM): 0.5
relative viability ([2]; first compound 8 µM): 0.521

NCI-H1944
relative viability ([1]; first compound 0.08 µM): 0.723
relative viability ([1]; first compound 0.253 µM): 0.726
relative viability ([1]; first compound 0.8 µM): 0.782
relative viability ([1]; first compound 2.53 µM): 0.795
relative viability ([1]; first compound 8 µM): 0.646
relative viability (Masitinib + Linsitinib; first compound 0.03162 µM): 1.14
relative viability (Masitinib + Linsitinib; first compound 0.1 µM): 0.794
relative viability (Masitinib + Linsitinib; first compound 0.3162 µM): 1.12
relative viability (Masitinib + Linsitinib; first compound 1 µM): 1.17
relative viability ([2]; first compound 0.08 µM): 0.377
relative viability ([2]; first compound 0.253 µM): 0.379
relative viability ([2]; first compound 0.8 µM): 0.377
relative viability ([2]; first compound 2.53 µM): 0.327
relative viability ([2]; first compound 8 µM): 0.377
